Test [1] concerns the target T1, human mAChR M1 (Homo sapiens, UniProt P11229).
T1 sequence (P11229 1-460): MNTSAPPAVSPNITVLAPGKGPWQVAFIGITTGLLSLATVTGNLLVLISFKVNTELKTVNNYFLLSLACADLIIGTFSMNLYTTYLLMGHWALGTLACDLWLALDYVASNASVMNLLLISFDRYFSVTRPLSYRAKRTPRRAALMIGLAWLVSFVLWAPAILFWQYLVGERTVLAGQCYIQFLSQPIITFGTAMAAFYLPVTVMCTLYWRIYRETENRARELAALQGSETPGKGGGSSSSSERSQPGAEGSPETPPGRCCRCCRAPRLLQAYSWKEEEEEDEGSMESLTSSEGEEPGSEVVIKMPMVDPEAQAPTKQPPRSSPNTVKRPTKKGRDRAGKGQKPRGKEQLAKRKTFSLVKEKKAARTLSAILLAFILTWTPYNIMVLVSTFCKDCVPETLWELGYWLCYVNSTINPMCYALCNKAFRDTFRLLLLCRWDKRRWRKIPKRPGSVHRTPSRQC
Briefly: mAChR M1 cell-based functional assay (calcium mobilization), PAM mode: increase in the EC20 acetylcholine response. The essentials:
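CHO-K1 cells stably expressing hM1, Fluo-4 loaded, read by FDSS calcium flux at 1 Hz. Compound (11-point 1:3 CRC) added at 4 s, EC20 acetylcholine at 144 s, EC80 at 230 s. PAM activity taken as concentration-dependent increase in EC20 ACh response, fitted by four-parameter logistic for EC50/Emax.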

For test [2], the target named is T1, human mAChR M1. Briefly: mAChR M1 cell-based functional assay (calcium mobilization), agonist mode: compound alone, Emax relative to acetylcholine maximum. The settings on record: for Agonist Activity Human M1 EC50 / pEC50: human mAChR M1; for Emax: relative to the maximum for acetylcholine. An outline of the steps: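 CHO-K1 cells stably expressing hM1 were loaded with Fluo-4 AM, and calcium flux was read as fluorescence ratio. Compound was added alone from an 11-point 1:3 curve, and the agonist response was fitted with a four-parameter logistic. Emax is expressed relative to the acetylcholine maximum.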
(Calcium assays in cells follow changes in intracellular calcium, usually with a dye or a luminescent sensor.)

pEC50: −log10 of the molar value.

As a reminder, the pEC50 is the EC50 on a negative log10 scale, so that one unit is a factor of ten. As a reminder, the Emax is the greatest response seen or fitted, relative to the assay's reference. On to `[2H]C1([2H])c2ncccc2C(=O)N1Cc1ccc(-c2ccnc3nn(C)cc23)cc1F` [Compound 22, 6-(2-fluoro-4-(2-methyl-2H-pyrazolo[3,4-b]pyridin-4-yl)benzyl)-6,7-dihydro-5H-pyrrolo[3,4-b]pyridin-5-one-7,7-d2], for which, at human mAChR M1 [1], the pEC50 is 5.71 and the Emax came out at 74%. For the same molecule, on human mAChR M1 [2], the “Agonist Activity Human M1 EC50” value is given as “Inactive” and the Emax amounted to 6%.

With `[2H]C1([2H])c2ncccc2C(=O)N1Cc1c(C)cc(-c2ccc(F)c3nn(C([2H])([2H])[2H])cc23)cc1F` [Compound 158, 6-(2-fluoro-4-(7-fluoro-2-(methyl-d3)-2H-indazol-4-yl)-6-methylbenzyl)-6,7-dihydro-5H-pyrrolo[3,4-b]pyridin-5-one-7,7-d2], at human mAChR M1 [1], the negative logarithm of the EC50 (pEC50) is 6.42 and the Emax worked out at 80%. For the same molecule, on human mAChR M1 [2], the “Agonist Activity Human M1 EC50” value is “Inactive” and the Emax was 6%.

For `[2H]C1([2H])c2ncccc2C(=O)N1Cc1c(F)cc(-c2ccc(C)c3nn(C([2H])([2H])[2H])cc23)cc1F` [Compound 52, 6-(2,6-difluoro-4-(7-methyl-2-(methyl-d3)-2H-indazol-4-yl)benzyl)-6,7-dihydro-5H-pyrrolo[3,4-b]pyridin-5-one-7,7-d2], on human mAChR M1 [1], the pEC50 was 6.50 and the Emax was 85%. At human mAChR M1 [2], the “Agonist Activity Human M1 EC50” value is on record as “Inactive” and the maximal effect (Emax) was 2%.

As to `[2H]C1([2H])c2ncccc2C(=O)N1Cc1c(F)cc(-c2cc3cn(C)nc3cc2C)cc1F` [Compound 6, 6-(4-(2,6-dimethyl-2H-indazol-5-yl)-2,6-difluorobenzyl)-6,7-dihydro-5H-pyrrolo[3,4-b]pyridin-5-one-7,7-d2], at human mAChR M1 [1], the pEC50 is 5.39 and the Emax was found to be 48%. For the same molecule, on human mAChR M1 [2], the “Agonist Activity Human M1 EC50” value was “Inactive” and the maximum response (Emax) stood at 7%.

Turning to `[2H]C1([2H])c2ncccc2C(=O)N1Cc1ccc(-c2cc3cn(C)nc3cc2F)cc1F` [Compound 24, 6-(2-fluoro-4-(6-fluoro-2-methyl-2H-indazol-5-yl)benzyl)-6,7-dihydro-5H-pyrrolo[3,4-b]pyridin-5-one-7,7-d2], on human mAChR M1 [1], the negative logarithm of the EC50 (pEC50) is 5.44 and the maximum response (Emax) worked out at 69%. Moreover, at human mAChR M1 [2], the “Agonist Activity Human M1 EC50” value is on record as “Inactive” and the Emax came out at 2%.

With `[2H]C1([2H])c2ncccc2C(=O)N1Cc1c(F)cc(-c2cccc3nn(C([2H])([2H])[2H])cc23)cc1C(F)(F)F` [Compound 226, 6-(2-fluoro-4-(2-(methyl-d3)-2H-indazol-4-yl)-6-(trifluoromethyl)benzyl)-6,7-dihydro-5H-pyrrolo[3,4-b]pyridin-5-one-7,7-d2], on human mAChR M1 [1], the pEC50 is 5.87 and the Emax was found to be 54%. At human mAChR M1 [2], the “Agonist Activity Human M1 EC50” value was “Inactive” and the maximum response (Emax) stood at 2%.

With `[2H]C1([2H])c2ncccc2C(=O)N1Cc1c(F)cc(-c2ccc(OCC)c3nn(C([2H])([2H])[2H])cc23)cc1F` [Compound 97, 6-(4-(7-ethoxy-2-(methyl-d3)-2H-indazol-4-yl)-2,6-difluorobenzyl)-6,7-dihydro-5H-pyrrolo[3,4-b]pyridin-5-one-7,7-d2], on human mAChR M1 [1], the negative-log EC50 (pEC50) is 6.79 and the Emax came to 88%. At human mAChR M1 [2], the negative-log EC50 (pEC50) was 5.23 and the Emax was 25%.

Take `[2H]C1([2H])c2ncccc2C(=O)N1Cc1c(F)cc(-c2ccnc3nn(C)cc23)cc1Cl` [Compound 165, 6-(2-chloro-6-fluoro-4-(2-methyl-2H-pyrazolo[3,4-b]pyridin-4-yl)benzyl)-6,7-dihydro-5H-pyrrolo[3,4-b]pyridin-5-one-7,7-d2]: on human mAChR M1 [1], the pEC50 was 6.19 and the Emax is 93%. In addition, at human mAChR M1 [2], the pEC50 was no more than 5.00 and the maximal effect (Emax) is 16%.

Regarding `[2H]C1([2H])c2ncccc2C(=O)N1Cc1c(F)cc(-c2cccc3nn(CC)cc23)cc1F` [Compound 42, 6-(4-(2-ethyl-2H-indazol-4-yl)-2,6-difluorobenzyl)-6,7-dihydro-5H-pyrrolo[3,4-b]pyridin-5-one-7,7-d2], the pEC50 is 6.43 at human mAChR M1 [1] and less than 5.00 on human mAChR M1 [2]. Besides, the maximum response (Emax) stood at 81% at human mAChR M1 [1] and 13% at human mAChR M1 [2].

On to `[2H]C1([2H])c2ncccc2C(=O)N1Cc1c(F)cc(-c2cccc3nn(C([2H])([2H])[2H])c(F)c23)cc1C1CC1` [Compound 191, 6-(2-Cyclopropyl-6-fluoro-4-(3-fluoro-2-(methyl-d3)-2H-indazol-4-yl)benzyl)-6,7-dihydro-5H-pyrrolo[3,4-b]pyridin-5-one-7,7-d2], for which, at human mAChR M1 [1], the pEC50 is 5.98 and the Emax turned out to be 58%. In addition, at human mAChR M1 [2], the “Agonist Activity Human M1 EC50” value was “Inactive” and the Emax amounted to 2%.

For `[2H]C1([2H])c2ncccc2C(=O)N1Cc1ccc(-c2ccc(F)c3nn(C)cc23)cc1C` [Compound 48, 6-(4-(7-fluoro-2-methyl-2H-indazol-4-yl)-2-methylbenzyl)-6,7-dihydro-5H-pyrrolo[3,4-b]pyridin-5-one-7,7-d2], at human mAChR M1 [1], the pEC50 is 6.31 and the Emax was found to be 85%. On human mAChR M1 [2], the pEC50 was less than 5.00 and the Emax turned out to be 9%.

For the molecule `[2H]C1([2H])c2ncccc2C(=O)N1Cc1ccc(-c2ccc(F)c3nn(C([2H])([2H])[2H])cc23)cc1F` [Compound 54, 6-(2-fluoro-4-(7-fluoro-2-(methyl-d3)-2H-indazol-4-yl)benzyl)-6,7-dihydro-5H-pyrrolo[3,4-b]pyridin-5-one-7,7-d2], the pEC50 on human mAChR M1 [1] is 6.42; on human mAChR M1 [2], less than 5.00. The Emax worked out at 82% on human mAChR M1 [1] and 5% on human mAChR M1 [2].

Regarding `[2H]C1([2H])c2ncccc2C(=O)N1Cc1c(F)cc(-c2ccc(C(F)(F)F)c3c2cnn3C([2H])([2H])[2H])cc1F` [Compound 244, 6-(2,6-difluoro-4-(1-(methyl-d3)-7-(trifluoromethyl)-1H-indazol-4-yl)benzyl)-6,7-dihydro-5H-pyrrolo[3,4-b]pyridin-5-one-7,7-d2], on human mAChR M1 [1], the pEC50 was less than 5.00 and the Emax turned out to be 34%. For the same molecule, on human mAChR M1 [2], the “Agonist Activity Human M1 EC50” value is “Inactive” and the maximum response (Emax) was 2%.

With `[2H]C1([2H])c2ncccc2C(=O)N1Cc1ccc(-c2ccc(C)c3nn(C([2H])([2H])[2H])cc23)cc1C` [Compound 58, 6-(2-methyl-4-(7-methyl-2-(methyl-d3)-2H-indazol-4-yl)benzyl)-6,7-dihydro-5H-pyrrolo[3,4-b]pyridin-5-one-7,7-d2], at human mAChR M1 [1], the negative-log EC50 (pEC50) is 6.21 and the Emax worked out at 83%. On human mAChR M1 [2], the “Agonist Activity Human M1 EC50” value is given as “Inactive” and the maximal response (Emax) turned out to be 4%.

With `[2H]C1([2H])c2ncccc2C(=O)N1Cc1c(F)cc(-c2ccnc3nn(C)cc23)cc1OCC(C)C` [Compound 217, 6-(2-fluoro-6-isobutoxy-4-(2-methyl-2H-pyrazolo[3,4-b]pyridin-4-yl)benzyl)-6,7-dihydro-5H-pyrrolo[3,4-b]pyridin-5-one-7,7-d2], on human mAChR M1 [1], the negative-log EC50 (pEC50) is 6.68 and the maximal effect (Emax) was 78%. Further, on human mAChR M1 [2], the negative-log EC50 (pEC50) is 5.54 and the maximum response (Emax) turned out to be 23%.

On to `[2H]C1([2H])c2ncccc2C(=O)N1Cc1c(F)cc(-c2cc(Cl)cc3c2cnn3C([2H])([2H])[2H])cc1F` [Compound 246, 6-(4-(6-chloro-1-(methyl-d3)-1H-indazol-4-yl)-2,6-difluorobenzyl)-6,7-dihydro-5H-pyrrolo[3,4-b]pyridin-5-one-7,7-d2], for which, at human mAChR M1 [1], the pEC50 was less than 5.00 and the Emax turned out to be 25%. In addition, at human mAChR M1 [2], the “Agonist Activity Human M1 EC50” value is on record as “Inactive” and the Emax came out at 2%.

In the case of `[2H]C1([2H])c2ncccc2C(=O)N1Cc1ccc(-c2ccc(OCC3CCCO3)c3nn(C)cc23)cc1F` (stereo not shown) [Compound 147, 6-(2-fluoro-4-(2-methyl-7-((tetrahydrofuran-2-yl)methoxy)-2H-indazol-4-yl)benzyl)-6,7-dihydro-5H-pyrrolo[3,4-b]pyridin-5-one-7,7-d2], at human mAChR M1 [1], the negative-log EC50 (pEC50) is 5.96 and the Emax was found to be 79%. Moreover, on human mAChR M1 [2], the negative-log EC50 (pEC50) is no more than 5.00 and the Emax was found to be 12%.

On to `[2H]C1([2H])c2ncccc2C(=O)N1Cc1c(F)cc(-c2ccc(C3CC3)c3nn(C)cc23)cc1F` [Compound 122, 6-(4-(7-cyclopropyl-2-methyl-2H-indazol-4-yl)-2,6-difluorobenzyl)-6,7-dihydro-5H-pyrrolo[3,4-b]pyridin-5-one-7,7-d2], for which, on human mAChR M1 [1], the pEC50 was 6.10 and the Emax was determined as 77%. In addition, at human mAChR M1 [2], the “Agonist Activity Human M1 EC50” value is given as “Inactive” and the Emax is 3%.

Regarding `[2H]C([2H])([2H])Oc1ccc(-c2ccc(CN3C(=O)c4cccnc4C3([2H])[2H])c(F)c2)c2cn(C)nc12` [Compound 107, 6-(2-fluoro-4-(7-(methoxy-d3)-2-methyl-2H-indazol-4-yl)benzyl)-6,7-dihydro-5H-pyrrolo[3,4-b]pyridin-5-one-7,7-d2], at human mAChR M1 [1], the pEC50 was 6.64 and the maximal effect (Emax) is 74%. For the same molecule, at human mAChR M1 [2], the negative logarithm of the EC50 (pEC50) is 5.26 and the Emax was 16%.
